These molecules were tested against mTOR/GbL/Raptor (mTORC1) (Homo sapiens, UniProt P42345) (assay: mTOR/GbL/Raptor (mTORC1) ELISA assay). Details: phosphorylation of 4E-BP1; 0.2 nM mTORC1, 10 μM ATP; read-out: IC50 in this assay (mTORC1 ELISA).
Type: biochemical
Method in brief: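 ELISA read-out: phospho-4E-BP1 captured on Ni-chelate plates and detected with anti-phospho antibody plus HRP-anti-IgG luminescence. The kinase step ran 120 min at ambient temperature with 0.2 nM human mTORC1, 10 µM ATP, 50 nM His-4E-BP1, 10 mM MnCl2, pH 7.2 HEPES.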

| IC50 [nM] | Compound |
| --- | --- |
| ≥ 2000 | COc1c(OCCN(C)C)ccc2c(N3CCOc4ccc(-c5ccc6nc(C)[nH]c6c5)cc4C3)ncnc12 [Example 165, N,N-dimethyl-2-({4-[7-(2-methyl-1H-benzimidazol-6-yl)-2,3-dihydro-1,4-benzoxazepin-4(5H)-yl]-8-(methyloxy)quinazolin-7-yl}oxy)ethanamine] |
| 250 to 1000 | COc1c(OCC(C)C)ccc2c(N3CCOc4ccc(-c5ccc6nc(C)[nH]c6c5)cc4C3)ncnc12 [Example 166, 7-(2-methyl-1H-benzimidazol-6-yl)-4-{8-(methyloxy)-7-[(2-methylpropyl)oxy]quinazolin-4-yl}-2,3,4,5-tetrahydro-1,4-benzoxazepine] |
| ≥ 2000 | COc1c(OCc2ccc3ccccc3n2)ccc2c(N3CCOc4ccc(-c5ccc6nc(C)[nH]c6c5)cc4C3)ncnc12 [Example 167, 7-(2-methyl-1H-benzimidazol-6-yl)-4-{8-(methyloxy)-7-[(quinolin-2-ylmethyl)oxy]quinazolin-4-yl}-2,3,4,5-tetrahydro-1,4-benzoxazepine] |
| 250 to 1000 | COc1c(OCC2CC2)ccc2c(N3CCOc4ccc(-c5ccc6nc(C)[nH]c6c5)cc4C3)ncnc12 [Example 168, 4-{7-[(cyclopropylmethyl)oxy]-8-(methyloxy)quinazolin-4-yl}-7-(2-methyl-1H-benzimidazol-6-yl)-2,3,4,5-tetrahydro-1,4-benzoxazepine] |
| 250 to 1000 | Cc1nc2ncc(-c3ccc4c(c3)CN(c3ncncc3C)CCO4)cc2[nH]1 [Example 169, 7-(2-methyl-1H-imidazo[4,5-b]pyridin-6-yl)-4-(5-methylpyrimidin-4-yl)-2,3,4,5-tetrahydro-1,4-benzoxazepine] |
| ≤ 10 | Cc1ncnc(N2CCOc3ccc(-c4ccc(C(N)=O)cc4)cc3C2)c1Cc1ccc(F)cc1 [Example 170, 4-(4-{5-[(4-fluorophenyl)methyl]-6-methylpyrimidin-4-yl}-2,3,4,5-tetrahydro-1,4-benzoxazepin-7-yl)benzamide] |
| ≤ 10 | CNC(=O)c1ccc(-c2ccc3c(c2)CN(c2ncnc(C)c2Cc2ccc(F)cc2)CCO3)cc1 [Example 171, 4-(4-{5-[(4-fluorophenyl)methyl]-6-methylpyrimidin-4-yl}-2,3,4,5-tetrahydro-1,4-benzoxazepin-7-yl)-N-methylbenzamide] |
| 50 to 250 | Cc1ncnc(N2CCOc3ccc(-c4ccc(C(=O)NC5CC5)cc4)cc3C2)c1Cc1ccc(F)cc1 [Example 172, N-cyclopropyl-4-(4-{5-[(4-fluorophenyl)methyl]-6-methylpyrimidin-4-yl}-2,3,4,5-tetrahydro-1,4-benzoxazepin-7-yl)benzamide] |
| ≤ 10 | Cc1ncnc(N2CCOc3ccc(-c4ccc(C(=O)NCC(F)F)cc4)cc3C2)c1Cc1ccc(F)cc1 [Example 174, N-(2,2-difluoroethyl)-4-(4-{5-[(4-fluorophenyl)methyl]-6-methylpyrimidin-4-yl}-2,3,4,5-tetrahydro-1,4-benzoxazepin-7-yl)benzamide] |
| ≤ 10 | COC(=O)Nc1nc2ncc(-c3ccc4c(c3)CN(c3ncnc(C)c3Cc3ccc(F)cc3)CCO4)cc2[nH]1 [Example 175, methyl [6-(4-{5-[(4-fluorophenyl)methyl]-6-methylpyrimidin-4-yl}-2,3,4,5-tetrahydro-1,4-benzoxazepin-7-yl)-1H-imidazo[4,5-b]pyridin-2-yl]carbamate] |
| ≤ 10 | Cc1ncnc(N2CCOc3ccc(-c4cnc5nc(N)[nH]c5c4)cc3C2)c1Cc1ccc(F)cc1 [Example 176, 6-(4-{5-[(4-fluorophenyl)methyl]-6-methylpyrimidin-4-yl}-2,3,4,5-tetrahydro-1,4-benzoxazepin-7-yl)-1H-imidazo[4,5-b]pyridin-2-amine] |
| ≤ 10 | CC1(C)CCc2ncnc(N3CCOc4ccc(-c5cnc6nc(N)[nH]c6c5)cc4C3)c2C1 [Example 177, 6-[4-(6,6-dimethyl-5,6,7,8-tetrahydroquinazolin-4-yl)-2,3,4,5-tetrahydro-1,4-benzoxazepin-7-yl]-1H-imidazo[4,5-b]pyridin-2-amine] |
| ≤ 10 | CCC1CCc2ncnc(N3CCOc4ccc(-c5cnc6nc(N)[nH]c6c5)cc4C3)c2C1 (stereo not shown) [Example 178, 6-[4-(6-ethyl-5,6,7,8-tetrahydroquinazolin-4-yl)-2,3,4,5-tetrahydro-1,4-benzoxazepin-7-yl]-1H-imidazo[4,5-b]pyridin-2-amine] |
| 10 to 50 | CC1CCc2c(ncnc2N2CCOc3ccc(-c4cnc5nc(N)[nH]c5c4)cc3C2)C1 (stereo not shown) [Example 179, 6-[4-(7-methyl-5,6,7,8-tetrahydroquinazolin-4-yl)-2,3,4,5-tetrahydro-1,4-benzoxazepin-7-yl]-1H-imidazo[4,5-b]pyridin-2-amine] |
| 10 to 50 | COc1cc2ncnc(N3CCOc4ccc(-c5cnc6nc(N)[nH]c6c5)cc4C3)c2cc1OC [Example 180, 6-{4-[6,7-bis(methyloxy)quinazolin-4-yl]-2,3,4,5-tetrahydro-1,4-benzoxazepin-7-yl}-1H-imidazo[4,5-b]pyridin-2-amine] |
| ≤ 10 | Nc1nc2ncc(-c3ccc4c(c3)CN(c3ncnc5ccc(Br)cc35)CCO4)cc2[nH]1 [Example 181, 6-[4-(6-brromoquinazolin-4-yl)-2,3,4,5-tetrahydro-1,4-benzoxazepin-7-yl]-1H-imidazo[4,5-b]pyridin-2-amine] |

| IC50 [nM] | Compound |
| --- | --- |
| 10 to 50 | COc1ccc2ncnc(N3CCOc4ccc(-c5cnc6nc(N)[nH]c6c5)cc4C3)c2c1 [Example 182, 6-{4-[6-(methyloxy)quinazolin-4-yl]-2,3,4,5-tetrahydro-1,4-benzoxazepin-7-yl}-1H-imidazo[4,5-b]pyridin-2-amine] |
| ≤ 10 | Nc1nc2ncc(-c3ccc4c(c3)CN(c3ncnc5ccc(I)cc35)CCO4)cc2[nH]1 [Example 183, 6-[4-(6-iodoquinazolin-4-yl)-2,3,4,5-tetrahydro-1,4-benzoxazepin-7-yl]-1H-imidazo[4,5-b]pyridin-2-amine] |
| 250 to 1000 | COc1cc2c(N3CCOc4ccc(-c5cnc6nc(N)[nH]c6c5)cc4C3)ncnc2cc1Br [Example 184, 6-{4-[7-bromo-6-(methyloxy)quinazolin-4-yl]-2,3,4,5-tetrahydro-1,4-benzoxazepin-7-yl}-1H-imidazo[4,5-b]pyridin-2-amine] |
| 10 to 50 | Nc1nc2ncc(-c3ccc4c(c3)CN(c3ncnc5cc(Cl)c(Br)cc35)CCO4)cc2[nH]1 [Example 185, 6-[4-(6-bromo-7-chloroquinazolin-4-yl)-2,3,4,5-tetrahydro-1,4-benzoxazepin-7-yl]-1H-imidazo[4,5-b]pyridin-2-amine] |
| 10 to 50 | Nc1nc2ncc(-c3ccc4c(c3)CN(c3ncnc5ccc(Cl)cc35)CCO4)cc2[nH]1 [Example 186, 6-[4-(6-chloroquinazolin-4-yl)-2,3,4,5-tetrahydro-1,4-benzoxazepin-7-yl]-1H-imidazo[4,5-b]pyridin-2-amine] |
| 10 to 50 | Nc1nc2ncc(-c3ccc4c(c3)CN(c3ncnc5ccc(F)cc35)CCO4)cc2[nH]1 [Example 187, 6-[4-(6-fluoroquinazolin-4-yl)-2,3,4,5-tetrahydro-1,4-benzoxazepin-7-yl]-1H-imidazo[4,5-b]pyridin-2-amine] |
| 50 to 250 | COc1cc2nccc(N3CCOc4ccc(-c5cnc6nc(N)[nH]c6c5)cc4C3)c2cc1OC [Example 188, 6-{4-[6,7-bis(methyloxy)quinolin-4-yl]-2,3,4,5-tetrahydro-1,4-benzoxazepin-7-yl}-1H-imidazo[4,5-b]pyridin-2-amine] |
| ≤ 10 | Cc1ncnc(N2CCOc3ccc(-c4ccc5nc(N)[nH]c5c4)cc3C2)c1Cc1ccc(F)cc1 [Example 189, 6-(4-{5-[(4-fluorophenyl)methyl]-6-methylpyrimidin-4-yl}-2,3,4,5-tetrahydro-1,4-benzoxazepin-7-yl)-1H-benzimidazol-2-amine] |
| 250 to 1000 | Nc1nc2ccc(-c3ccc4c(c3)CN(c3ccnc5ccccc35)CCO4)cc2[nH]1 [Example 190, 6-(4-quinolin-4-yl-2,3,4,5-tetrahydro-1,4-benzoxazepin-7-yl)-1H-benzimidazol-2-amine] |
| 250 to 1000 | COc1cc2nccc(N3CCOc4ccc(-c5ccc6nc(N)[nH]c6c5)cc4C3)c2cc1OC [Example 191, 6-{4-[6,7-bis(methyloxy)quinolin-4-yl]-2,3,4,5-tetrahydro-1,4-benzoxazepin-7-yl}-1H-benzimidazol-2-amine] |
| ≤ 10 | CCNc1nc2ccc(-c3ccc4c(c3)CN(c3ncnc(C)c3Cc3ccc(F)cc3)CCO4)cc2[nH]1 [Example 192, N-ethyl-6-(4-{5-[(4-fluorophenyl)methyl]-6-methylpyrimidin-4-yl}-2,3,4,5-tetrahydro-1,4-benzoxazepin-7-yl)-1H-benzimidazol-2-amine] |
| ≤ 10 | Cc1ncnc(N2CCOc3ccc(-c4ccc5[nH]c(NCCF)nc5c4)cc3C2)c1Cc1ccc(F)cc1 [Example 193, N-(2-fluoroethyl)-5-(4-{5-[(4-fluorophenyl)methyl]-6-methylpyrimidin-4-yl}-2,3,4,5-tetrahydro-1,4-benzoxazepin-7-yl)-1H-benzimidazol-2-amine] |
| 10 to 50 | Cc1ncnc(N2CCOc3ccc(-c4ccc5nc(N)[nH]c5n4)cc3C2)c1Cc1ccc(F)cc1 [Example 194, 5-(4-{5-[(4-fluorophenyl)methyl]-6-methylpyrimidin-4-yl}-2,3,4,5-tetrahydro-1,4-benzoxazepin-7-yl)-3H-imidazo[4,5-b]pyridin-2-amine] |
| 1000 to 2000 | CN(C)c1nc2ccc(-c3ccc4c(c3)CN(c3ccnc5ccccc35)CCO4)cc2[nH]1 [Example 195, N,N-dimethyl-6-(4-quinolin-4-yl-2,3,4,5-tetrahydro-1,4-benzoxazepin-7-yl)-1H-benzimidazol-2-amine] |
| ≥ 2000 | COCc1nc2ccc(-c3ccc4c(c3)CN(c3ccnc5ccccc35)CCO4)cc2[nH]1 [Example 196, 7-{2-[(methyloxy)methyl]-1H-benzimidazol-6-yl}-4-quinolin-4-yl-2,3,4,5-tetrahydro-1,4-benzoxazepine] |

Source: patent publication US8648066B2 (Exelixis, Inc., priority 2009, dated 2014)
